According to patent US12036246B2, “Compositions and methods for enhancing cancer chemotherapy” (priority 2017, dated 2024):

How the values were obtained:
[1] = system: breast cancer cells; experiment: Metastatic tumor load in mammary glands, animals implanted with breast cancer cells; format: in vivo; conditions: FIG. 65
[2] = system: p-AXL; experiment: Western blot of p-AXL in tumors, animal models of triple negative human breast cancer; format: in vivo; conditions: FIG. 112
[3] = system: proliferative index marker; experiment: Proliferative index marker in mammary gland tumors by immunocytochemistry; format: in vivo, murine; conditions: FIG. 11
Text: The effects of a nutritional supplement that includes fish oil and selenium in combination with chemotherapeutic drugs were also identified in in vivo studies, where the Ki-61 proliferative index marker was identified in mammary gland tumors of murine models by immunocytochemistry.

[4] = system: Cytochrome C; experiment: Western blot of Cytochrome C in tumors; format: in vivo; conditions: FIG. 38
Text: Results of similar studies directed to Bc1-2, p-Bc1-2, and Caspase 3 are shown in FIG. 36; results for similar studies directed to Caspase 8 are shown in FIG. 37. […] These effects are enhanced, in several instances synergistically, when a nutritional supplement containing fish oil and selenium is used in combination with a chemotherapeutic drug.

[5] = system: A549 lung cancer cells; experiment: Cell cycle phase distribution of A549 tumor cells; format: cell-based; conditions: selenium 300 ng/mL, fish oil 75 μM (DHA content), Alimta 1 μM, Tarceva 5 μM
[6] = system: A549 lung cancer sphere cells; experiment: Cell cycle phase distribution of A549 sphere cells; format: cell-based; conditions: Alimta 1 μM, Tarceva 5 μM, fish oil 75 μM, selenium 300 ng/mL
[7] = system: MDA-MB-231 breast cancer sphere cells; experiment: Cell cycle phase distribution, Cisplatin / selenium / fish oil (Table 4); format: cell-based; conditions: selenium 500 ng/mL, fish oil 75 μM (DHA content), Cisplatin 5 μg/mL
[8] = system: MDA-MB-231 breast cancer sphere cells; experiment: Proliferation of MDA-MB-231 sphere cells; format: cell-based; conditions: FIG. 45-46
[9] = system: triple-negative breast cancer cell line (MDA-MB-231); experiment: Proliferation of MDA-MB-231 breast cancer cells; format: cell-based; conditions: 72 hours, FIG. 8-9
[10] = system: drug resistant HCC827Gr lung cancer cells; experiment: Proliferation of drug resistant HCC827Gr cells; format: cell-based, human
[11] = system: AXL; experiment: Western blot of AXL in drug resistant HCC827GR cells; format: cell-based, human; conditions: Iressa 1 μM, FIG. 105, 108
[12] = system: lung cancer cells; experiment: Tumor weight in mice implanted with lung cancer cells, Iressa; format: in vivo
[13] = system: A549 sphere cells; experiment: Proliferation of A549 sphere cells; format: cell-based; conditions: FIG. 43-44
[14] = system: HCC827Gr cells; experiment: Viable resistant HCC827Gr cells in culture; format: cell-based, human; conditions: FIG. 54
[15] = system: Iressa-resistant HCC827GR cells; experiment: Cell cycle phase distribution of Iressa-resistant cells, co-treatment; format: cell-based, human; conditions: Iressa 1 μM
[16] = system: PD-1; experiment: PD-1 in T cells of animal models; format: in vivo; conditions: FIG. 70-72
[17] = system: HCC827Gr cells; experiment: Colony formation by resistant HCC827Gr cells; format: cell-based, human; conditions: 0.5 μM Iressa, FIG. 59-60
[18] = system: PTHrP; experiment: PTHrP expression in tumors; format: in vivo; conditions: FIG. 77, FIG. 89
[19] = system: IL-6; experiment: IL-6 expression in tumors; conditions: FIG. 77
[20] = system: lung cancer cells; experiment: Metastasis from implantation site of lung cancer cells; format: in vivo, mice; conditions: FIG. 63
[21] = system: implanted tumor; conditions: 28 days after tumor implantation, FIG. 13
Text: 8A provides an example of a typical testing protocol for such a nutritional supplement (“Nutrawell”) and the chemotherapeutic drug Tarceva. As shown, 28 days after tumor implantation mice were sacrificed and the tumor characterized.

[22] = Loss of adipose tissue and muscle mass in tumor bearing mice; format: in vivo; conditions: FIG. 75
Text: Individuals with cancer frequently present with weight loss, due to loss of fatty tissue and muscle wasting (cachexis). This weight loss can result in serious health issues in addition to those resulting directly from tumor growth and progression. […] Mice having tumors, with or without treatment with chemotherapeutic agents also experience cachexis.

[23] = system: HSP90; experiment: Western blot of HSP90 in tumors, animal models of triple negative human breast cancer; format: in vivo; conditions: FIG. 111
Procedure: Studies of the effect of a nutritional supplement containing fish oil and selenium, both alone and in combination with chemotherapeutic agents, were also studied using in vivo animal models of triple negative human breast cancer. Animals were treated with a nutritional supplement containing fish oil and selenium (for example, a formulation as described in Table 1), Taxol (“tax”), Adriamycin (“adyri”), Avastin, or a combination of the nutritional supplement and individual chemotherapeutic agents.

[24] = system: ATGL; experiment: ATGL expression in animal models of human cancer; format: in vivo; conditions: FIG. 89
Text: (§1) As shown in FIG. 89 (lower left panel), expression of UCP-1 and ATGL is increases in tumor tissue (T) relative to non-tumor tissue (NT).

[25] = system: UCP-1; experiment: UCP-1 expression in animal models of human cancer; format: in vivo; conditions: FIG. 89
Text: as §1

[26] = system: vascularization of tumors; experiment: Tumor-associated blood vessels in murine models of breast cancer; format: in vivo, mice; conditions: FIG. 24-31
Procedure: In an exemplary study mice were treated as shown in the scheme depicted in FIG. 23.

For `COc1cccc2c1C(=O)c1c(O)c3c(c(O)c1C2=O)C[C@@](O)(C(=O)CO)C[C@@H]3O[C@H]1C[C@H](N)[C@H](O)[C@H](C)O1` [Adriamycin, doxorubicin], the “metastatic tumor load in the mammary glands” value [1] was “more effective than Taxol in reducing metastatic tumor load”, the “p-AXL content of the tumor” value [2] was “little to no apparent reduction in p-AXL expression” and the “number of Ki-61 positive cells (proliferative index)” value [3] was “reduces the number of positive cells”. For the same compound, the “Cytochrome C” value [4] was “little to no increase”.

For `Nc1nc2[nH]cc(CCc3ccc(C(=O)N[C@@H](CCC(=O)O)C(=O)O)cc3)c2c(=O)[nH]1` [Alimta], the “G0/G1 (cell cycle phase distribution)” value [5] was 58.4%, the “G2/M (cell cycle phase distribution)” value [5] was 5.3% and the “S (cell cycle phase distribution)” value [5] was 36.3%. For the same compound, the “SubG1 (cell cycle phase distribution)” value [5] was 45%, the “G0/G1 (cell cycle phase distribution)” value [6] was 62.4% and the “G2/M (cell cycle phase distribution)” value [6] was 7.2%. For the same compound, the “S (cell cycle phase distribution)” value [6] was 30.4% and the “SubG1 (cell cycle phase distribution)” value [6] was 20.9%.

With `N.N.[Cl][Pt][Cl]` [Cisplatin] the “G0/G1 (cell cycle phase distribution)” value [7] was 48.5%, the “G2/M (cell cycle phase distribution)” value [7] was 6.1% and the “S (cell cycle phase distribution)” value [7] was 45.4%. For the same compound, the “SubG1 (cell cycle phase distribution)” value [7] was 11.7% and the “proliferation of MDA-MB-231 breast cancer sphere cells” value [8] was “relatively resistant”.

With `CC(=O)O[C@@]12CO[C@@H]1C[C@H](O)[C@@]1(C)C(=O)[C@H](O)C3=C(C)[C@@H](OC(=O)[C@H](O)[C@@H](NC(=O)OC(C)(C)C)c4ccccc4)C[C@@](O)([C@@H](OC(=O)c4ccccc4)[C@H]21)C3(C)C` [Docetaxel] the MDA-MB-231 cell proliferation [9] was “provided a reduction in proliferation” and the “proliferation of MDA-MB-231 breast cancer sphere cells” value [8] was “moderate sensitivity to Docetaxel”.

With `COc1cc2ncnc(Nc3ccc(F)c(Cl)c3)c2cc1OCCCN1CCOCC1` [Iressa] the “reduction in cell proliferation” value ([10]; HCC827Gr cells, FIG. 57-58) was no more than 20%, the activity at 1 µM ([10]; Homo sapiens, read-out: proliferation, % of control values) was roughly 80% and the AXL expression [11] was “had no effect”. For the same compound, the tumor weight ([12]; FIG. 16) was “only a marginal reduction in tumor weight”, the tumor weight distribution ([12]; FIG. 16 top right panel) was “most of the mice having >6 gram tumors” and the “proliferation of A549 sphere cells” value [13] was “relatively resistant to treatment with Iressa”. The “number of viable resistant HCC827Gr cells” value [14] was “does not significantly decrease the number of viable resistant HCC827Gr cells”, the “G0/G1 (cell cycle phase distribution)” value [15] was 76.1% and the “G2/M (cell cycle phase distribution)” value [15] was 18.9%. The “S (cell cycle phase distribution)” value [15] was 4.9%, the “SubG1 (cell cycle phase distribution)” value [15] was 1.51% and the “PD-1 expression in T cells” value [16] was “marginally reduced”. The “colony formation by HCC827Gr cells” value [17] was “Significant colony formation”.

In the case of `C#Cc1cccc(Nc2ncnc3cc(OCCOC)c(OCCOC)cc23)c1` [Tarceva], the “G0/G1 (cell cycle phase distribution)” value [5] was 70.9%, the “G2/M (cell cycle phase distribution)” value [5] was 14.8% and the “S (cell cycle phase distribution)” value [5] was 14.2%. For the same compound, the “SubG1 (cell cycle phase distribution)” value [5] was 5.9%, the PTHrP expression [18] was “can actually increase expression of such gene products” and the “proliferation of A549 sphere cells” value [13] was “similarly resistant to Tarceva”. The “IL-6 expression in tumors” value [19] was “can actually increase expression of such gene products”, the “G0/G1 (cell cycle phase distribution)” value [6] was 58.3% and the “G2/M (cell cycle phase distribution)” value [6] was 8.9%. For the same compound, the “S (cell cycle phase distribution)” value [6] was 32.7%, the “SubG1 (cell cycle phase distribution)” value [6] was 42.8% and the “metastasis of tumor cells from the implantation site” value [20] was “reduced to some extent”. The “PD-1 expression in T cells” value [16] was “marginally reduced”, the “tumor weight distribution, large (>5 g) tumors” value [21] was “still showed a significant number of such large tumors” and the “loss of white adipose tissue (WAT), brown adipose tissue (BAT), and muscle mass (gastroc)” value [22] was “only slightly relieved”.

With `CC(=O)O[C@H]1C(=O)[C@@]2(C)[C@H]([C@H](OC(=O)c3ccccc3)[C@]3(O)C[C@H](OC(=O)[C@H](O)[C@@H](NC(=O)c4ccccc4)c4ccccc4)C(C)=C1C3(C)C)[C@]1(OC(C)=O)CO[C@@H]1C[C@@H]2O` [Taxol, paclitaxel] the “metastatic tumor load in the mammary glands” value [1] was “modest reduction in tumor loading of mammary glands”, the PTHrP expression [18] was “actually increased expression when used alone” and the “HSP90 expression in tumor samples” value [23] was “minimal impact on HSP90 expression”. For the same compound, the “p-AXL content of the tumor” value [2] was “reduces p-AXL expression”, the “expression of ATGL” value [24] was “decreased somewhat” and the “expression of UCP-1” value [25] was “decreased somewhat”. For the same compound, the “blood vessels associated with the tumors” value [26] was “reduce the number of blood vessels associated with the tumor and also reduce their diameter”, the “number of Ki-61 positive cells (proliferative index)” value [3] was “reduces the number of positive cells” and the “Cytochrome C” value [4] was “little to no increase”.

With “Avastin: chemotherapeutic drug commonly used to treat breast cancer” the “HSP90 expression in tumor samples” value [23] was “reduced to some extent” and the “p-AXL content of the tumor” value [2] was “little to no apparent reduction in p-AXL expression”.
